In ChEMBL document CHEMBL1126440, “Design and synthesis of azabicyclic muscarinic agonists incorporating an oxime ether functionality” (Bioorg Med Chem Lett, 1992):

Tests used:
[1] = Ratio of change in mean blood pressure (BP) to that of mean power spectrum of EEG; format: functional
[2] = target: Muscarinic acetylcholine receptor; test: Displacement of [3H]- oxotremorine-M (OXO-M) binding from muscarinic receptors of rat cerebral cortex; 10-30; format: tissue-based
Rattus norvegicus [3] = test: Effective dose required to cause 50% fall in mean blood pressure (BP) […] of urethane anesthetized rats after iv administration of compound; format: functional
[4] = target: Muscarinic acetylcholine receptor; test: Displacement of [3H]quinuclidinyl benzilate(QNB) binding from muscarinic receptors of rat cerebral cortex; 2000-4800; format: tissue-based
Rattus norvegicus [5] = test: Dose required to produce a change in the mean power spectrum of EEG equivalent to that of a standard dose (0.32 mg/Kg i.v.) of arecoline after iv administration of compound; format: functional
[6] = target: Muscarinic acetylcholine receptor; test: Displacement of [3H]- oxotremorine-M (OXO-M) binding from muscarinic receptors of rat cerebral cortex; 230-335; format: tissue-based
[7] = target: Muscarinic acetylcholine receptor (Rattus norvegicus) (UniProt P08482+P08483+P08485+P08911+P10980); test: Relative affinity of oxotremorine-M (OXO-M) and [3H]quinuclidinyl benzilate (QNB) for muscarinic receptors; format: protein assay
[8] = target: Muscarinic acetylcholine receptor; test: Displacement of [3H]quinuclidinyl benzilate(QNB) binding from muscarinic receptors of rat cerebral cortex; 2700-3000; format: tissue-based
[9] = target: Muscarinic acetylcholine receptor; test: Displacement of [3H]- oxotremorine-M (OXO-M) binding from muscarinic receptors of rat cerebral cortex; format: tissue-based
[10] = target: Muscarinic acetylcholine receptor; test: Displacement of [3H]quinuclidinyl benzilate(QNB) binding from muscarinic receptors of rat cerebral cortex; 2500-5600; format: tissue-based
[11] = target: Muscarinic acetylcholine receptor; test: Displacement of [3H]quinuclidinyl benzilate(QNB) binding from muscarinic receptors of rat cerebral cortex; format: tissue-based
[12] = target: Muscarinic acetylcholine receptor; test: Displacement of [3H]- oxotremorine-M (OXO-M) binding from muscarinic receptors of rat cerebral cortex; 205-310; format: tissue-based
[13] = target: Muscarinic acetylcholine receptor; test: Displacement of [3H]quinuclidinyl benzilate(QNB) binding from muscarinic receptors of rat cerebral cortex; 3400-10000; format: tissue-based
[14] = target: Muscarinic acetylcholine receptor; test: Displacement of [3H]- oxotremorine-M (OXO-M) binding from muscarinic receptors of rat cerebral cortex; 65-110; format: tissue-based
[15] = target: Muscarinic acetylcholine receptor; test: Displacement of [3H]quinuclidinyl benzilate(QNB) binding from muscarinic receptors of rat cerebral cortex; 1400-2900; format: tissue-based
[16] = target: Muscarinic acetylcholine receptor; test: Displacement of [3H]- oxotremorine-M (OXO-M) binding from muscarinic receptors of rat cerebral cortex; 66-83; format: tissue-based
[17] = target: Muscarinic acetylcholine receptor; test: Displacement of [3H]- oxotremorine-M (OXO-M) binding from muscarinic receptors of rat cerebral cortex; 50-65; format: tissue-based
[18] = target: Muscarinic acetylcholine receptor; test: Displacement of [3H]quinuclidinyl benzilate(QNB) binding from muscarinic receptors of rat cerebral cortex; 12500-16500; format: tissue-based
[19] = target: Muscarinic acetylcholine receptor; test: Displacement of [3H]quinuclidinyl benzilate(QNB) binding from muscarinic receptors of rat cerebral cortex; 2600-4400; format: tissue-based
[20] = target: Muscarinic acetylcholine receptor; test: Displacement of [3H]- oxotremorine-M (OXO-M) binding from muscarinic receptors of rat cerebral cortex; 44-48; format: tissue-based
[21] = target: Muscarinic acetylcholine receptor; test: Displacement of [3H]- oxotremorine-M (OXO-M) binding from muscarinic receptors of rat cerebral cortex; 90-155; format: tissue-based
[22] = target: Muscarinic acetylcholine receptor; test: Displacement of [3H]quinuclidinyl benzilate(QNB) binding from muscarinic receptors of rat cerebral cortex; 36000-40000; format: tissue-based
[23] = target: Muscarinic acetylcholine receptor; test: Displacement of [3H]quinuclidinyl benzilate(QNB) binding from muscarinic receptors of rat cerebral cortex; 4800-6300; format: tissue-based
[24] = target: Muscarinic acetylcholine receptor; test: Displacement of [3H]- oxotremorine-M (OXO-M) binding from muscarinic receptors of rat cerebral cortex; 44-170; format: tissue-based
[25] = target: Muscarinic acetylcholine receptor; test: Displacement of [3H]quinuclidinyl benzilate(QNB) binding from muscarinic receptors of rat cerebral cortex; 6200-9000; format: tissue-based
[26] = target: Muscarinic acetylcholine receptor; test: Displacement of [3H]- oxotremorine-M (OXO-M) binding from muscarinic receptors of rat cerebral cortex; 83-128; format: tissue-based
[27] = target: Muscarinic acetylcholine receptor; test: Displacement of [3H]- oxotremorine-M (OXO-M) binding from muscarinic receptors of rat cerebral cortex; 155-265; format: tissue-based
[28] = target: Muscarinic acetylcholine receptor; test: Displacement of [3H]quinuclidinyl benzilate(QNB) binding from muscarinic receptors of rat cerebral cortex; 3400-8000; format: tissue-based
[29] = target: Muscarinic acetylcholine receptor; test: Displacement of [3H]- oxotremorine-M (OXO-M) binding from muscarinic receptors of rat cerebral cortex; 12-62; format: tissue-based
[30] = target: Muscarinic acetylcholine receptor; test: Displacement of [3H]quinuclidinyl benzilate(QNB) binding from muscarinic receptors of rat cerebral cortex; 1400-2700; format: tissue-based

CO/N=C/[C@H]1CN2CC[C@H]1C2
Ratio [1]: 1.5
IC50 [2]: 0.015 µM
ED50 (Rattus norvegicus [3]): 0.0031 mg/kg
IC50 [4]: 3.1 µM
ED Arec (Rattus norvegicus [5]): 0.0021 mg/kg

CCCO/N=C/[C@H]1CN2CC[C@H]1C2
IC50 [6]: 0.278 µM
Ratio [7]: 10
IC50 [8]: 2.9 µM

CCO/N=C/[C@H]1CN2CC[C@H]1C2
IC50 [9]: 0.16 µM
IC50 [10]: 3.7 µM
Ratio [1]: >7.8
Ratio [7]: 23
ED50 (Rattus norvegicus [3]): > 1.8 mg/kg
ED Arec (Rattus norvegicus [5]): 0.23 mg/kg

CCCCO/N=C/[C@H]1CN2CC[C@H]1C2
IC50 [11]: 3.6 µM
Ratio [7]: 14
IC50 [12]: 0.252 µM

CO/N=C/C1CN2CCC1CC2 (stereo not drawn)
IC50 [13]: 5.8 µM
Ratio [7]: 61
IC50 [14]: 0.095 µM

CO/N=C(\C)C1CN2CCC1CC2 (stereo not drawn)
IC50 [15]: 2 µM
Ratio [7]: 29
IC50 [16]: 0.069 µM

CO/N=C(\C)C12CCN(CC1)C2
IC50 [17]: 0.055 µM
Ratio [7]: 255
IC50 [18]: 14 µM

CO/N=C(\C)C12CCCN(CC1)C2 (stereo not drawn)
IC50 [19]: 3.4 µM
Ratio [7]: 74
IC50 [20]: 0.046 µM

CO/N=C/C12CCN(CC1)C2
IC50 [21]: 0.118 µM
Ratio [7]: 321
IC50 [22]: 38 µM

CO/N=C/C12CCCN(CC1)C2 (stereo not drawn)
Ratio [7]: 87
IC50 [23]: 5.2 µM
IC50 [24]: 0.06 µM

CO/N=C(\C)[C@H]1CN2CC[C@H]1C2
IC50 [25]: 7.5 µM
Ratio [7]: 76
IC50 [26]: 0.099 µM

CC/C(=N\OC)[C@H]1CN2CC[C@H]1C2
IC50 [27]: 0.208 µM
IC50 [28]: 5.2 µM
Ratio [7]: 25

C#CCO/N=C/[C@H]1CN2CC[C@H]1C2
Ratio [1]: 10.6
IC50 [29]: 0.025 µM
Ratio [7]: 78
ED50 (Rattus norvegicus [3]): 0.17 mg/kg
ED Arec (Rattus norvegicus [5]): 0.016 mg/kg
IC50 [30]: 1.95 µM

COC(=O)C1CN2CCC1CC2 (stereo not drawn)
Ratio [7]: 48
